Reference: PubChem BioAssay AID330 (DTP/NCI, 2004)
Toxic doses and inconclusive results are not listed. How the source made its calls: active means survival T/C of 150% or more; inactive means T/C below 125% in these data.

Tested on: P388 leukemia ip, CD2F1 mice, survival T/C
Assay: NCI In Vivo Anticancer Drug Screen. Data for tumor model P388 Leukemia (intraperitoneal) in CD2F1 (CDF1) mice
Conditions: endpoint: median survival time, higher = longer survival
Procedure, shortened: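 Mice carrying the transplanted tumor received test compound or vehicle. Survival was recorded in each group, and the value is the treated-group measurement divided by that of the vehicle-treated control group.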

[1] = dose: 12.5 mg/kg/injection, schedule: Q01DX009 (ip), vehicle: Klucel (hydroxypropylcellulose) (HPC)
[2] = dose: 25.0 mg/kg/injection, schedule: Q01DX009 (ip), vehicle: Klucel (hydroxypropylcellulose) (HPC)

Measured: T/C

O=C1C2(Cl)C3(Cl)C4(Cl)C(Cl)(Cl)C5(Cl)[C@]3(Cl)C1(Cl)[C@]5(Cl)C24Cl (some centres undefined)
inactive: [1] 110 % of control | dose: 12.5 mg/kg/injection, schedule: Q01DX009 (ip), vehicle: saline with Tween-80 94 % of control | [2] 112 % of control | dose: 25.0 mg/kg/injection, schedule: Q01DX009 (ip), vehicle: saline with Tween-80 87 % of control

N#CC1=C(O)/C(=C\c2ccc(Cl)cc2)N=C1N
inactive: dose: 50.0 mg/kg/injection, schedule: Q01DX005 (ip), vehicle: saline with Tween-80 88 % of control | dose: 100.0 mg/kg/injection, schedule: Q01DX005 (ip), vehicle: saline with Tween-80 91 % of control | dose: 200.0 mg/kg/injection, schedule: Q01DX005 (ip), vehicle: saline with Tween-80 94 % of control

CC1(C)N=C(N)N=C(N)N1c1ccc(CCc2ccccc2)cc1
inactive: dose: 37.5 mg/kg/injection, schedule: Q04DX003 (ip), vehicle: saline with Tween-80 87 % of control | dose: 75.0 mg/kg/injection, schedule: Q04DX003 (ip), vehicle: saline with Tween-80 100 % of control | dose: 100.0 mg/kg/injection, schedule: Q04DX003 (ip), vehicle: saline 120 % of control | dose: 200.0 mg/kg/injection, schedule: Q04DX003 (ip), vehicle: saline 100 % of control

O=P(c1ccccc1)(c1ccccc1)c1ccccc1.O=P(c1ccccc1)(c1ccccc1)c1ccccc1.O=S(=O)(O)O.[Ni]
inactive: dose: 6.25 mg/kg/injection, schedule: Q01DX009 (ip), vehicle: Klucel (hydroxypropylcellulose) (HPC) 99 % of control | [1] 111 % of control | [2] 107 % of control
